We go through one compound from patent US8398970B2, “Method of preventing early Lawsonia intracellularis infections” (priority 2007, dated 2013).

The assay relates to Lawsonia intracellularis. The assay can be described thus: Embedded early vaccination field study: performance of weaned piglets during the rearing period. The assay is classed as in vivo. Here is the method:
The study was carried out in a unit in North Rhine Westphalia with 160 sows and 600 breeding stalls, producing to a weekly cycle with four weeks' suckling. The piglets are sold on for fattening once they reach about 30 kg.
The unit was chosen because clinical ileitis occurred in the rearing quarters of the unit if the animals were not treated with an antibiotic effective against Lawsonia intracellularis for 10 days from the weaning time onwards. More detailed diagnosis found. Lawsonia intracellularis in the faeces of the clinically sick animals and other diarrhea-causing pathogens were ruled out.
Within the course of the study all the piglets were weighed on removal from the sows and individually marked with progressive numbering using an ear tag. A blood sample was taken from each of 15 piglets in each group of weaned animals on the day of removal from the sow and this blood was tested for antibodies to Lawsonia intracellularis. The weaned piglets were put into pens in groups of 10 animals. Four days after weaning every second group of weaned animals was vaccinated with Enterisol® Ileitis (Boehringer Ingelheim) in accordance with the manufacturer's instructions through the drinking water in their trough. The other groups remained unvaccinated. After 3 days without antibiotics following the ileitis vaccination, the piglets of all the weaned groups were subjected to tylosin therapy (10 mg/kg KGW Tylae G 25, Elanco Animal Health) for 18 days starting from the 8th day after weaning. The unvaccinated weaned piglets were also treated with tylosin in the same dosage for 18 days starting from the 8th day after weaning.
On the day of release from their pens, all the piglets were again weighed individually. In addition, blood samples were taken from 10 piglets in each market batch, and the samples were examined for antibodies to Lawsonia intracellularis using ELISA. All the study groups were subjected to identical care and feed conditions. The study encompasses a total of 891 piglets. The absolute weight gain and daily increase in growth were calculated from the weights on removal from the sows and release from the pens. The rearing period was ascertained using the weaning date and date of sale.

In turn, `CC[C@H]1OC(=O)C[C@@H](O)[C@H](C)[C@@H](O[C@@H]2O[C@H](C)[C@@H](O[C@H]3C[C@@](C)(O)[C@@H](O)[C@H](C)O3)[C@H](N(C)C)[C@H]2O)[C@@H](CC=O)C[C@@H](C)C(=O)/C=C/C(C)=C/[C@@H]1CO[C@@H]1O[C@H](C)[C@@H](O)[C@@H](OC)[C@H]1OC` [tylosin] showed a rearing period (average, weaning date to date of sale) of 52.9 days. Besides, the “breeding pens blocked longer than pens containing vaccinated groups” value (difference in maximum rearing period) was 17 days. Further, where the note is “during rearing period”, the “average gain per day” value is recorded as 404 g per day. The compound further yielded a Max. growth period (maximum rearing period) of 96 days. For the setting “mean daily weight gain during rearing period”, this compound showed a daily increase of 404 g. Moreover, the sale weight (mean weight at end of rearing period) was found to be 29.26 kg. The same compound came in with a Min. growth period (shortest time after which a piglet was sent on for fattening) of 31 days.
